The IC50 is the concentration that inhibits the measured activity by half.

These results are taken from publication PMC7926793, “Synthesis and Biological Evaluation of 1-(Diarylmethyl)-1H-1,2,4-triazoles and 1-(Diarylmethyl)-1H-imidazoles as a Novel Class of Anti-Mitotic Agent for Activity in Breast Cancer” (Pharmaceuticals, 2021).

Assay [1] has as its system MCF-7 human breast cancer cells. The assay is described as follows: alamarBlue cell viability assay. Type of assay: cell-based. The conditions noted are these: Homo sapiens, MCF7, 72 h, read-out: cell viability (viable cells). As to the method:
The human breast carcinoma cell line MCF-7 was purchased from the European Collection of Animal Cell Cultures (ECACC) and cultured in Eagles minimum essential medium with 10% foetal bovine serum, 2 mM L-glutamine, and 100 μg/mL penicillin/streptomycin. The medium was supplemented with 1% non-essential amino acids. The human breast carcinoma cell line MDA-MB-231 was purchased from the ECACC. MDA-MB-231 cells were maintained in Dulbecco’s modified Eagle’s medium (DMEM) supplemented with 10% (v/v) foetal bovine serum, 2 mM L-glutamine, and 100 μg/mL penicillin/streptomycin (complete medium). HL-60 cells were derived from a patient with acute myeloid leukaemia and were obtained from the ECACC (Salisbury, UK). Cells were cultured in RPMI-1640 Glutamax medium supplemented with 10% FCS media and 100 μg/mL penicillin/streptomycin. MCF-10A cells were obtained as a kind gift from Dr Susan McDonnell, School of Chemical and Bioprocess Engineering, University College Dublin and were cultured in Dulbecco’s Modified Eagle Medium: Nutrient Mixture F-12 (DMEM/F12; Gibco) supplemented with 5% horse serum (Invitrogen), 20 ng mL^−1 epidermal growth factor (Merck Millipore), 0.5 μg mL^−1 hydrocortisone (Sigma,-Aldrich, Arklow, Co. Wicklow, Ireland), 100 ng mL^−1 cholera toxin (Sigma, Aldrich, Arklow, Co. Wicklow, Ireland), 10 μg mL^−1 insulin (Sigma, Aldrich, Arklow, Co. Wicklow, Ireland), and penicillin/streptomycin 5000 U mL^−1 (1%)(Gibco, Biosciences, 3 Charlemont Terrace, Crofton Road, Dun Laoghaire, Co Dublin, A96 K7H7, Ireland). Cells were maintained at 37 °C in 5% CO2 in a humidified incubator. All cells were sub-cultured 3 times/week by trypsinisation using TrypLE Express (1×).
Cells were seeded at a density of 2.5 × 10^4 cells/well (MCF-7, MDA-MB-231, MCF-10A cells) and 1 × 10^4 cells/well (HL-60) in 96-well plates (200 μL per well). After 24 h, cells were then treated with either medium alone, vehicle control (1% ethanol (v/v)) or with serial dilutions of CA-4 (4a), phenstatin (7a) or selected compounds (0.001–100 μM) in triplicate. Cell proliferation for MCF-7, MDA-MB-231, and MCF-10A cells was analysed using the alamarBlue assay (Invitrogen Corp.) according to the manufacturer’s instructions. After 67–69 h, alamarBlue (10% (v/v)) was added to each well, and plates were incubated for 3–5 h at 37 °C in the dark. Fluorescence was read using a 96-well fluorimeter with excitation at 530 nm and emission at 590 nm. Results were expressed as percentage viability relative to vehicle control (100%).
Background: The colour change of resazurin is a common sign of viable cells or microbes.

For assay [2], the system named is MCF-7 cells. The assay is described as follows: cell cycle analysis, PI staining, flow cytometry. Type of assay: cell-based, human. The following applies: 1 μM. The method, then:
The cells were collected by trypsinisation and centrifuged at 800× g for 15 min. Cells were washed twice with ice-cold phosphate-buffered saline (PBS) and fixed in ice-cold 70% ethanol overnight at −20 °C.
On the technique in general: A flow cytometer gives signals particle by particle.

Assay [3] deals with MCF-7 cells. In words: Annexin V/PI apoptotic assay. Type of assay: cell-based, human. The following applies: for Annexin V-stained positive cells (total apoptotic cells): 48 h. The method, then: (§1) Apoptotic cell death was detected by flow cytometry using Annexin V and propidium iodide (PI). MCF-7 and MDA-MB-231 cells were seeded in 6-well plates at a density of 1 × 10^5 cells/mL (3 mL) and treated with either vehicle (0.1% (v/v) EtOH), Phenstatin (7a), or 21l at different concentrations for the selected time. Then, cells were harvested and prepared for flow cytometric analysis. […] Then, cells were washed once in binding buffer and then re-suspended in PI-containing binding buffer (1:1000). […] Four populations are produced during the assay: Annexin V and PI negative (Q4, healthy cells), Annexin V positive and PI negative (Q3, early apoptosis), Annexin V and PI positive (Q2, late apoptosis), and Annexin V negative and PI positive (Q1, necrosis).

In assay [4] the test system is MDA-MB-231 cells. In words: Annexin V/PI apoptotic assay. The conditions noted are these: for total apoptotic cells: 48 h. Type of assay: cell-based, human. The method, then: as §1
The subject of assay [5] is purified bovine brain tubulin. In words: tubulin polymerisation assay. The following applies: 10 μM. It is filed as biochemical. The method, then: The assembly of purified bovine tubulin was monitored using a kit, BK006, purchased from Cytoskeleton Inc. (Denver, CO, USA). […] Light is scattered proportionally to the concentration of polymerised microtubules in the assay. Therefore, tubulin assembly was monitored turbidimetrically at 340 nm in a Spectramax 340 PC spectrophotometer (Molecular Devices, Sunnyvale, CA, USA). The absorbance was measured at 30 s intervals for 60 min.

Assay [6] has as its system tubulin (microtubule network) in MCF-7 cells. The assay is described as follows: immunofluorescence confocal microscopy of microtubule network. It is filed as cell-based, human. The following applies: 1 μM, 16 h. As to the method:
Confocal microscopy was used to study the effects of drug treatment on MCF-7 cytoskeleton. For immunofluorescence, MCF-7 cells were seeded at 1 × 10^5 cells/mL on eight chamber glass slides (BD Biosciences). […] Following treatment, cells were gently washed in PBS, fixed for 20 min with 4% paraformaldehyde in PBS, and permeabilised in 0.5% Triton X-100. Following washes in PBS containing 0.1% Tween (PBST), cells were blocked in 5% bovine serum albumin diluted in PBST. […] Following washes in PBST, the cells were mounted in Ultra Cruz Mounting Media (Santa Cruz Biotechnology, Santa Cruz, CA) containing 4,6-diamino-2-phenolindol dihydrochloride (DAPI). Images were captured by Leica SP8 confocal microscopy with Leica application suite X software. All images in each experiment were collected on the same day using identical parameters. Experiments were performed on three independent occasions.

In assay [7] the test system is MCF-7 human breast cancer cells. The conditions noted are these: MCF-7 section; read-out: IC50 of phenstatin positive control; cited from earlier work.
In assay [8] the test system is MDA-MB-231 human breast cancer cells. Set-up: method as in PMID 25721862. The following applies: read-out: reported IC50 of phenstatin in MDA-MB-231 cells; cited from earlier work.
The subject of assay [9] is HL-60 leukaemia cells. Set-up: method as in PMID 19647439. The following applies: read-out: IC50 of phenstatin in HL-60; cited from earlier work.
The mark [10] stands for this setting: Homo sapiens, MCF7, 48 h, read-out: Viable.
Setting [11] is: Homo sapiens, MDA-MB-231, 48 h, read-out: Viable.

Turning to `COc1ccc(C(=O)c2cc(OC)c(OC)c(OC)c2)cc1O` [phenstatin, (3-Hydroxy-4-Methoxyphenyl)(3,4,5-Trimethoxyphenyl)Methanone, reference compound], the viability at 1 µM in assay [1] came out at 30%. The entries for the “cells in the G2/M phase” value in assay [2] (24 h), in [2] (48 h) and in assay [2] (72 h) were 65%, 49% and 51%, respectively. Besides, the “cells undergoing apoptosis (sub-G1)” value in assay [2] (72 h) is 18%. Moreover, the viability at 0.1 µM in assay [3] (setting [10]) was 58.4%; in [4] (setting [11]), 80.4%. In addition, the viability at 0.5 µM in assay [3] (setting [10]) is 50.7%; in assay [4] (setting [11]) it was 80.6%. For the same molecule, the “Annexin V-stained positive cells (total apoptotic cells)” value in assay [3] (MCF-7, 0.1 μM) stood at 36.1%; in assay [3] (MCF-7, 0.5 μM), 46%. The total apoptotic cells in assay [4] (MDA-MB-231, 0.1 μM) is on record as 16.6%; in assay [4] (MDA-MB-231, 0.5 μM), 17.9%. Also, the “effect on tubulin polymerisation and assembly” value in [5] was “significant inhibition of tubulin polymerisation”. The “effect on microtubule network of MCF-7 cells” value in assay [6] is “extensive depolymerisation of tubulin”. The IC50 in assay [7] was 1.61 ± 2.7 nM; in [8], 1500 nM; in [9], 31 nM.
